Marks after values point to notes of the source that are not given here. Non-standard residues stand in square brackets, D forms with d.
What was measured:
[1] = tested on: intact rats and animals with reserpine-induced depression; test: Popsolt swim test, intact rats and animals with reserpine-induced depression; type: in vivo, rat; conditions: for Number of immobilization episodes / Total duration of immobilization / Latent immobilization period: imipramine 15 mg/kg i.p., tetrapeptide (LYS) 0.02 mg/kg i.n.
Protocol: The experiment was conducted on 16 white random-bred adult male rats weighing:
180-220 g. The antidepressant activity of tetrapeptide (LYS), a neuroprotector, at a 0.02 mg/kg dose intranasally (i.n.) was evaluated. […] The experiment was conducted in two stages. […] 25-30 min. prior to the start of the experiment, the animals were administered their respective drugs. The animals in the control group were administered 0.9% NaCl solution i.p. and i.n. in the volume equal to the volume of the medications. After that, the animals of all groups were placed in the open field (OF) for 3 min., and their locomotor (number of crossed squares), orientation, and exploratory (number of upright positions and explored openings) activity as well as their emotional reactions (fecal boluses, urination, grooming) were evaluated. The indicators of depression in the animals (latent immobilization period, the number of such instances, and their total duration) were evaluated in the Popsolt swim test (PST) over 6 min. In the next 2 days, all the medications were administered at the same dose once a day; the last administration—30 min before the depressogenic sympatholytics of reserpine. Reserpine was administered on the 3rd day (2nd stage of the experiment) at a 4 mg/kg dose i.p. (as a suspension stabilized with Tween-80). Animals in all 3 groups were evaluated 6-7 hr. later in the OF and PST.
Test results were statistically processed. When the data distribution was normal, the parametric Student's t-distribution test was applied, when it was absent, the non-parametric MannWhitney U-test was used. When processing the results in an alternative form (presence/absence of the indicator), Fisher's angular transformation φ was applied. Wilcoxon paired t-criterium test was used for the intra-group statistical evaluation of the changed in the animal test results prior and post simulated depression. The results were considered to be statistically significant when p<0.05.

ATP = test: Brain ATP level in rat models with Alzheimer's disease; type: in vivo; conditions: tetrapeptide 0.1 mg/kg; as a trend
Protocol: (§1) The drugs were administered daily, once a day.
1966, t. […] M. I. Prokhorova, Leningrad, pub. House LSU, 1982.—pp. 256-258].

rat models with AD = test: Porsolt swim test (PST), scopolamine-induced Alzheimer's disease model; type: in vivo; conditions: AD rats; donepezil 1 mg/kg i.p., tetrapeptide (LYS) 0.1 mg/kg i.n.
Protocol: (§2) White random-bred adult male rats weighing 200-240 g were used. Groups of 7 animals per group were formed. 1st group—control, 2nd—pathology, 3rd—comparator drug, 4th-6th—neuropeptides.
(§3) Scopolamine was administered i.p. to the animals in all groups except for the control at a 1 mg/kg dose daily, once a day for 27 days. From the 28th day on, the animals in groups 2 and 3 were administered the comparator drug and the claimed preparation respectively over the course of 10 days. The drugs were administered daily, once a day.
(§4) The tetrapeptides were administered i.n at a 0.1 mg/kg dose. The animals in the pathology group received 0.9% sodium chloride solution i.n. and i.p. as a placebo.
(§5) The OF and EE tests were conducted on the 1st day, PST—on the 2nd day, CPAR—on the 1st and 10th day post treatment with the preparations. […] The antiamnesic action (AA) in the CPAR test was calculated using Butler's formula [K. S. Radionova. […] After that, the animals were removed from the experiment by administering a narcotic, followed by decapitation. The brain was extracted and weighed, and the brain weight coefficient (BWC) was calculated. Immediately after extraction, the brain was frozen in liquid nitrogen and used in subsequent biochemical and histochemical studies. Glucose levels in whole arterial (common carotid artery) and venous (venous cerebral sinus) blood were determined by the glucose oxidase test, the difference in the arterial-venous glucose content was calculated (glucose consumption marker). The levels of average weight molecules—the toxic products of cell biodegradation damaged during the disease (nucleoside derivatives, peptoids, glucuronic acid salts, etc.) in the blood serum (AWM) were calculated [A. N. Kovalevsky. Notes on the screening method of determination average weight molecules/A. N. Kovalevsky, O. Ye. Nifantiev//Lab. Science. […] 35-39].

superoxide dismutase = test: Superoxide dismutase activity in the brain of rat models with Alzheimer's disease; type: in vivo; conditions: tetrapeptide 0.1 mg/kg
Protocol: as §1
(§6) Standard biochemical methods were used to determine the content and activity of antioxidant defense enzymes and products of lipid peroxidation: malonic dialdehyde (MDA) [Modern Biochemistry Methods/[edited by V. N. Orekhovich]; M. Medicine, 1977, 392 pp]; superoxide dismutase (SOD) [O. P. Makarevich Activity of superoxide dismutase in blood in the acute period of various diseases/O. P. Makarevich, P. P. Golikov//Lab. Science, 1983, No 6, pp 24-27]; catalase [Methods for the Determination of Catalase Activity/M. A. Korolyuk, L. I. Ivanova, I. G. Mayorova, et al//Lab. Science, 1988, No 1, pp 16-19]; and reduced glutathione [T. A. Kochetov A Practical Guide to Enzymology. M. Nauka, 1980, 280 pp].

[2] = tested on: rat models with Alzheimer's disease; test: Conditioned passive avoidance reflex (CPAR) test, scopolamine-induced Alzheimer's disease model; type: in vivo; conditions: for antiamnesic action (AA) in the CPAR test: Butler's formula, 0.1 mg/kg; for number of animals who reached the CPAR learning criterium: % of total trained animals, criterium at least 180 sec in light area
Protocol: as §2, §3, §4, §5

[3] = tested on: rat models with Alzheimer's disease; test: Extrapolation escape (EE) test, scopolamine-induced Alzheimer's disease model; type: in vivo
Protocol: as §2, §3, §4, §5

[4] = Brain weight coefficient (BWC) in rat models with Alzheimer's disease; type: in vivo; conditions: statistically insignificant; donepezil 1 mg/kg, tetrapeptide 0.1 mg/kg
Protocol: as §1, §5

catalase = test: Catalase activity in the brain of rat models with Alzheimer's disease; type: in vivo; conditions: tetrapeptide 0.1 mg/kg; statistically significant
Protocol: as §1, §6

acetylcholinesterase = acetylcholinesterase (Rattus norvegicus, UniProt P37136); conditions: donepezil 1 mg/kg, tetrapeptide 0.1 mg/kg
Protocol: as §3, §4
A procedure for the isolation of noradrenaline (together with adrenaline), dopamine, 5-hydroxy tryptamine and histamine from the same tissue sample using a single column of strongly acidic cation exchange resin 1C. […] Determination of ATP content in tissue//Methods for biochemical research/Edited by prof. M. I. Prokhorova, Leningrad, pub.

[5] = R - reserpine-induced depression
[6] = reserpine-induced depression, p<0.05
[7] = 3 min test, scopolamine 1 mg/kg i.p. 27 days, donepezil 1 mg/kg i.p. 10 days, peptide (LYS) 0.1 mg/kg i.n. 10 days

acetylcholinesterase, sequence (P37136 32-614): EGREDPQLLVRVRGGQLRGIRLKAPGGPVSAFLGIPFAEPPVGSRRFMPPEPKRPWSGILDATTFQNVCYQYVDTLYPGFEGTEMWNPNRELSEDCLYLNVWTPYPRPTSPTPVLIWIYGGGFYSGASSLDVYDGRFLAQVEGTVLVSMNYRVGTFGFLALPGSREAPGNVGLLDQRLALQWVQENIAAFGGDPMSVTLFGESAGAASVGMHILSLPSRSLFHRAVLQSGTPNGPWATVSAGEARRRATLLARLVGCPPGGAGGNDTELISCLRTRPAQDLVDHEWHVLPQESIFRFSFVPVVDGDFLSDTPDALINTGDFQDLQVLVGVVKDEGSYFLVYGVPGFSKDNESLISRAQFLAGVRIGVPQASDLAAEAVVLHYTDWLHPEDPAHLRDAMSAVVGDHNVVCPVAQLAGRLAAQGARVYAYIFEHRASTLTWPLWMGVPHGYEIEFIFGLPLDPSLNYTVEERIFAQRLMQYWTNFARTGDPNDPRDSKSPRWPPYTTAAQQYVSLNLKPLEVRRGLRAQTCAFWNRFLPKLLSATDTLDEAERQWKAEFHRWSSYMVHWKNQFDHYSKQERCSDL

## acetyl-D-Lys-Lys-Arg-Arg-amide (Ac-[dK]KRR-NH2; SMILES CC(=O)N[C@H](CCCCN)C(=O)N[C@@H](CCCCN)C(=O)N[C@@H](CCCNC(=N)N)C(=O)N[C@@H](CCCNC(=N)N)C(N)=O) [tetrapeptide (LYS)]
[1]; I - intact animals
  Number of immobilization episodes: 1.2 ± 0.6
  Total duration of immobilization: 4.0 ± 2.7 s
[1]; I - intact animals, 6 min
  Latent immobilization period: 214.6 ± 66.7 s
[1]; [5]
  Latent immobilization period: 170.8 ± 34.1 s
  Number of immobilization episodes: 3.0 ± 0.38
  Total duration of immobilization: 7.8 ± 2.3 s
[1]; R vs I
  Latent immobilization period, % change reserpine-induced depression vs. intact animals: (−20.4)^ %
  Number of immobilization episodes, % change reserpine-induced depression vs. intact animals: (+150.0%)
  Total duration of immobilization, % change reserpine-induced depression vs. intact animals: (+95.0%)
[1]; intact animals, p<0.05
  increase of the latent immobilization period compared to the control: 3.5 times
  reduction of the number of immobilization periods compared to the control: 11.5 times
  reduction of total duration of immobilization compared to the control: 16.1 times
[1]; [6]
  increase of the latent immobilization period compared to the control: 4.5 times
  reduction of the number of immobilization episodes compared to the control: 2.6 times
  reduction of total duration of immobilization compared to the control: 3.6 times
ATP
  brain ATP level: increased ATP level
Rat models with AD
  Latent period of immobilization: 68.12 ± 6.15 s
  Number of immobilization acts: 6.21 ± 0.82
  Total duration of immobilization: 111.06 ± 13.25 s
Superoxide dismutase
  increase of SOD activity compared to the pathology group: 22%
[2]; 10th day
  antiamnesic action (AA) in the CPAR test: 81.5%
[2]; 24 hrs. post formation of CPAR
  increase of latent period compared to the pathology group: 79.5%
[2]; In 24 hrs., scopolamine + donepezil 1 mg/kg or tetrapeptide (LYS) 0.1 mg/kg i.n.
  Latent period of entry into the dark area of the CPAR device, In 24 hrs.: 126.14 ± 23.62 s
[2]; In 10 days, scopolamine + donepezil 1 mg/kg or tetrapeptide (LYS) 0.1 mg/kg i.n.
  Latent period of entry into the dark area of the CPAR device, In 10 days: 89.71 ± 19.09^ sec.
[2]; Initial, scopolamine + donepezil 1 mg/kg or tetrapeptide (LYS) 0.1 mg/kg i.n.
  Latent period of entry into the dark area of the CPAR device, Initial: 20.14 ± 3.73 s
[2]; first day
  number of animals who reached the CPAR learning criterium: 42.9%
  antiamnesic action (AA) in the CPAR test: 56.5%
[2]; post 10 days, p<0.05
  increase of latent period compared to the pathology group: 130.9%
[2]; tenth day
  number of animals who reached the CPAR learning criterium: 14.3%
[3]; 0.1 mg/kg i.n. 10 days, p<0.05
  reduction of escape time compared to the pathology group: 3.8 times
[3]; 0.1 mg/kg i.n. vs donepezil 1 mg/kg, p<0.05
  escape time difference versus donepezil: 41.7%
[3]; [7]
  % of animals succeeded: 100%
  Escape time: 11.00 ± 3.07*^ sec.
[4]
  reduction of the brain weight coefficient (BWC): 14.3%
catalase
  reduction of the elevated activity of catalase: 1.1 times
acetylcholinesterase
  AChE activity in synapsosomes and in the whole brain homogenate: reduces

Source: patent US10844091B2 (priority 2017, dated 2020)
